Measurements: paper PMC10272112 (Nature Communications, 2023)
Several values for one entry are separate records, joined by “and”; a condition that tells them apart may be missing. Equal entries are not always repeated. One block for each compound: values may come before it.

Key:
[1] = biological target: T1, HDAC3/NcoR2 complex (Homo sapiens, UniProt O15379); test: HDAC-Glo assay; assay type: biochemical; conditions: for EC50: read-out: log EC50 from dose-dependent HDAC inhibition curves (converted); for HDCA3 relative activity: sheet S2b
T1 construct: purchased BPS Bioscience 50003
T1 sequence (O15379 whole entry): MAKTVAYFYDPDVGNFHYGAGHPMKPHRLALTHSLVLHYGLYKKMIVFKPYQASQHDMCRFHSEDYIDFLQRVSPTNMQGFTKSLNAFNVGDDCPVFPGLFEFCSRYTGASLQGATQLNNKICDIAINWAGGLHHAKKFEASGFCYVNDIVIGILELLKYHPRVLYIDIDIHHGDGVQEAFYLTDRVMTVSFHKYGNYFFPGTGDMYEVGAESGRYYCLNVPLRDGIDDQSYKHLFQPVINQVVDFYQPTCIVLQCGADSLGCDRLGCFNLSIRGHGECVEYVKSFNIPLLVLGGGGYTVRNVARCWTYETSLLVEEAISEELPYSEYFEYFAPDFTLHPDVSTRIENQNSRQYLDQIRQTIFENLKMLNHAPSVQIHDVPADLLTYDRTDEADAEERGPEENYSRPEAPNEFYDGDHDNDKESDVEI
T1 sequence (Q9Y618 395-489 partner limits assumed): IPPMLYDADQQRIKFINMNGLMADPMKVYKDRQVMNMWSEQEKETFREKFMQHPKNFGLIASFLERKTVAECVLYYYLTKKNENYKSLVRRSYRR
Experimental: (§1) To validate the inhibition of HDACs by LA and LM and elaborate on the structure-activity relationship (SAR) of enantiomers as well as oxidized versus reduced forms of the molecules, we performed enzyme activity assays for recombinant HDAC1,2,3,6,8 as well as FRET-based binding assay for recombinant HDAC10.
(§2) The experiments were performed according to ref. [48]. […] Drug dosing was performed with a D300e Digital Dispenser (Tecan). HDACs (7 ng/mL for HDAC1, 25 ng/mL for HDAC2, 200 ng/mL for HDAC3/Ncor2 complex, 100 ng/mL for HDAC6, 200 ng/mL for HDAC8) and inhibitors were incubated together at room temperature (RT) for 30 min. After the addition of the HDAC-Glo™ I/II reagent, plates were shaken (800 rpm orbital shaker, 30 s), centrifuged (300 g, 1 min), and incubated at RT for 30 min. Luminescence was detected with a CLARIOstar (BMG Labtech) plate reader.

[2] = biological target: T2, HDAC6 (Homo sapiens, UniProt Q9UBN7); test: HDAC-Glo assay; assay type: biochemical; parameters: purchased BPS Bioscience 50006; conditions: for EC50: read-out: log EC50 from dose-dependent HDAC inhibition curves (converted)
T2 sequence (Q9UBN7 1-1215): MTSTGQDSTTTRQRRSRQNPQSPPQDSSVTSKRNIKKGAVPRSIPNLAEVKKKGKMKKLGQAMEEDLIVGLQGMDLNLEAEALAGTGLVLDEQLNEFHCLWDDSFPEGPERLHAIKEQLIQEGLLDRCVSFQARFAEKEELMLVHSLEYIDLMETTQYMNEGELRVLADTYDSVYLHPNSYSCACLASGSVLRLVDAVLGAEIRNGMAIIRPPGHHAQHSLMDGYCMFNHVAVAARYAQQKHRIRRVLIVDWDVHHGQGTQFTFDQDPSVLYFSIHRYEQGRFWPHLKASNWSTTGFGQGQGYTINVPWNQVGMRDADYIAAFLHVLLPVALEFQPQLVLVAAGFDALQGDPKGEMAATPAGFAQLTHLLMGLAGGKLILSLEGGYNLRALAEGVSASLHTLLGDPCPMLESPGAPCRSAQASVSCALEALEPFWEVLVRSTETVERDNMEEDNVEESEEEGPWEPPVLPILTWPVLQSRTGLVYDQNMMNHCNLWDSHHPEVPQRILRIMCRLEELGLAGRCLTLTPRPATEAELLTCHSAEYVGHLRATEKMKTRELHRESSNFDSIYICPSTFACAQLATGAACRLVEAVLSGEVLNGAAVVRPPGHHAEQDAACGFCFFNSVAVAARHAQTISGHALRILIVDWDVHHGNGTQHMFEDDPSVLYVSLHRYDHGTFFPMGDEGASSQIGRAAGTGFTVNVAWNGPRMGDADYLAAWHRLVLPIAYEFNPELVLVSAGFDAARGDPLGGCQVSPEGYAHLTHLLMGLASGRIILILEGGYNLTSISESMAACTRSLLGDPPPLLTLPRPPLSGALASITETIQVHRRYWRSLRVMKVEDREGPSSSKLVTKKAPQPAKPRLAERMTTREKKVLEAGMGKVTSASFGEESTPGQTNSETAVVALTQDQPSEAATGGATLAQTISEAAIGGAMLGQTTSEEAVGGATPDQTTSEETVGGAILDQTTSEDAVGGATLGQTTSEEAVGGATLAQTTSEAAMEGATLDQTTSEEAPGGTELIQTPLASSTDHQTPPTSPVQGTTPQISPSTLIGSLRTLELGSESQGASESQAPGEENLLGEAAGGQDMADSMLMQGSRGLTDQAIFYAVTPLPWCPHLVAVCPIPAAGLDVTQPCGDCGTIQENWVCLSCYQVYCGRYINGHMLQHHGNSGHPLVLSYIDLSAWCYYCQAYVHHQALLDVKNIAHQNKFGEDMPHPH
Experimental: as §1, §2

[3] = 0.5 M TCEP, log10 M -3.30103, 3 technical replicates
[4] = 0.5 M TCEP, log10 M -3.82945, 3 technical replicates
[5] = 0.5 M TCEP, log10 M -4.35788, 3 technical replicates
[6] = 0.5 M TCEP, log10 M -4.88629, 3 technical replicates
[7] = 0.5 M TCEP, log10 M -5.41477, 3 technical replicates
[8] = 0.5 M TCEP, log10 M -5.94309, 3 technical replicates
[9] = 0.5 M TCEP, log10 M -6.47756, 3 technical replicates
[10] = 0.5 M TCEP, log10 M -6.87615, 3 technical replicates
[11] = no TCEP, log10 M -3.30103, 3 technical replicates
[12] = no TCEP, log10 M -3.82945, 3 technical replicates
[13] = no TCEP, log10 M -4.35788, 3 technical replicates
[14] = no TCEP, log10 M -4.88629, 3 technical replicates
[15] = no TCEP, log10 M -5.41477, 3 technical replicates
[16] = no TCEP, log10 M -5.94309, 3 technical replicates
[17] = no TCEP, log10 M -6.47756, 3 technical replicates
[18] = no TCEP, log10 M -6.87615, 3 technical replicates

EC50 [1]: 15.6 µM
HDCA3 relative activity ([1]; log conc -3.30103): 69.6623 and 70.4079 and 69.1097
HDCA3 relative activity ([1]; log conc -3.82945): 75.2589 and 76.6842 and 75.5671
HDCA3 relative activity ([1]; log conc -4.35788): 87.3214 and 88.0897 and 87.877
HDCA3 relative activity ([1]; log conc -4.88629): 91.0887 and 91.1636 and 92.3406
HDCA3 relative activity ([1]; log conc -5.41477): 88.6242 and 91.0601 and 91.2237
HDCA3 relative activity ([1]; log conc -5.94309): 95.2751 and 94.3928 and 97.2335
HDCA3 relative activity ([1]; log conc -6.47756): 90.1183 and 90.3135 and 93.1985
HDCA3 relative activity ([1]; log conc -6.87615): 107.529 and 106.868 and 106.288
EC50 [2]: 0.931 µM
HDAC6 relative activity ([2]; sheet S2b, log conc -3.30103): 75.3248 and 75.1005 and 70.3242
HDAC6 relative activity ([2]; sheet S2b, log conc -3.82945): 95.4583 and 94.7241 and 92.4168
HDAC6 relative activity ([2]; sheet S2b, log conc -4.35788): 101.41 and 101.875 and 100.004
HDAC6 relative activity ([2]; sheet S2b, log conc -4.88629): 103.293 and 100.632 and 100.653
HDAC6 relative activity ([2]; sheet S2b, log conc -5.41477): 102.294 and 103.492 and 99.8033
HDAC6 relative activity ([2]; sheet S2b, log conc -5.94309): 101.321 and 102.657 and 100.612
HDAC6 relative activity ([2]; sheet S2b, log conc -6.47756): 107.714 and 104.061 and 103.825
HDAC6 relative activity ([2]; sheet S2b, log conc -6.87615): 97.9564 and 94.6265 and 91.4846
SMILES: NC(=O)CCCCC1CCSS1 (racemic) [(R/S)-LM, (R/S)-lipoamide]

SMILES: O=C(O)CCCCC1CCSS1 (racemic) [(R/S)-LA, (R/S)-lipoic acid]
HDAC enzymatic activity (normalized luminescence) [1, 3]: 7.256 and 7.282 and 7.339
HDAC enzymatic activity (normalized luminescence) [1, 4]: 17.0785 and 16.9479 and 17.22
HDAC enzymatic activity (normalized luminescence) [1, 5]: 49.3596 and 49.0858 and 50.0362
HDAC enzymatic activity (normalized luminescence) [1, 6]: 95.5948 and 97.1564 and 98.2162
HDAC enzymatic activity (normalized luminescence) [1, 7]: 101.96 and 103.73 and 105.005
HDAC enzymatic activity (normalized luminescence) [1, 8]: 91.2378 and 92.4271 and 93.0815
HDAC enzymatic activity (normalized luminescence) [1, 9]: 89.2879 and 93.1305 and 94.7241
HDAC enzymatic activity (normalized luminescence) [1, 10]: 90.3991 and 92.4306 and 92.5457
HDAC enzymatic activity (normalized luminescence) [1, 11]: 64.3889 and 65.753 and 66.6157
HDAC enzymatic activity (normalized luminescence) [1, 12]: 67.3361 and 68.514 and 68.6262
HDAC enzymatic activity (normalized luminescence) [1, 13]: 79.5043 and 81.2871 and 81.6059
HDAC enzymatic activity (normalized luminescence) [1, 14]: 87.8136 and 89.4197 and 90.6707
HDAC enzymatic activity (normalized luminescence) [1, 15]: 88.1589 and 90.4647 and 92.122
HDAC enzymatic activity (normalized luminescence) [1, 16]: 88.1501 and 88.386 and 90.7058
HDAC enzymatic activity (normalized luminescence) [1, 17]: 88.6188 and 88.5508 and 90.3108
HDAC enzymatic activity (normalized luminescence) [1, 18]: 97.6646 and 98.0479 and 97.5948
EC50 [1]: 41.7 µM
HDCA3 relative activity ([1]; log conc -3.30103): 4.168 and 4.13 and 4.176
HDCA3 relative activity ([1]; log conc -3.82945): 8.909 and 8.94 and 8.919
HDCA3 relative activity ([1]; log conc -4.35788): 25.3559 and 24.0859 and 24.4605
HDCA3 relative activity ([1]; log conc -4.88629): 55.6369 and 56.3521 and 62.4157
HDCA3 relative activity ([1]; log conc -5.41477): 100.947 and 102.17 and 103.057
HDCA3 relative activity ([1]; log conc -5.94309): 105.476 and 106.045 and 106.401
HDCA3 relative activity ([1]; log conc -6.47756): 89.5862 and 90.873 and 93.4553
HDCA3 relative activity ([1]; log conc -6.87615): 104.127 and 108.406 and 102.786
HDAC enzymatic activity (normalized luminescence) [2, 3]: 1.458 and 1.424 and 1.356
HDAC enzymatic activity (normalized luminescence) [2, 4]: 2.832 and 2.728 and 2.83
HDAC enzymatic activity (normalized luminescence) [2, 5]: 6.139 and 5.789 and 5.799
HDAC enzymatic activity (normalized luminescence) [2, 6]: 13.455 and 13.5196 and 13.8559
HDAC enzymatic activity (normalized luminescence) [2, 7]: 31.3499 and 32.1006 and 33.4073
HDAC enzymatic activity (normalized luminescence) [2, 8]: 55.9078 and 57.6015 and 56.5157
HDAC enzymatic activity (normalized luminescence) [2, 9]: 76.0987 and 79.5289 and 82.7102
HDAC enzymatic activity (normalized luminescence) [2, 10]: 85.7363 and 87.7513 and 88.064
HDAC enzymatic activity (normalized luminescence) [2, 11]: 23.0918 and 22.3431 and 22.7816
HDAC enzymatic activity (normalized luminescence) [2, 12]: 56.1761 and 58.3464 and 57.3647
HDAC enzymatic activity (normalized luminescence) [2, 13]: 82.4637 and 85.6042 and 82.8934
HDAC enzymatic activity (normalized luminescence) [2, 14]: 93.4335 and 99.2455 and 95.9681
HDAC enzymatic activity (normalized luminescence) [2, 15]: 97.1057 and 101.846 and 99.5994
HDAC enzymatic activity (normalized luminescence) [2, 16]: 97.3023 and 99.1974 and 100.246
HDAC enzymatic activity (normalized luminescence) [2, 17]: 99.4261 and 102.712 and 105.54
HDAC enzymatic activity (normalized luminescence) [2, 18]: 96.4036 and 90.044 and 88.9734
EC50 [2]: 1.73 µM
HDAC6 relative activity ([2]; sheet S2b, log conc -3.30103): 1.144 and 1.081 and 1.088
HDAC6 relative activity ([2]; sheet S2b, log conc -3.82945): 2.37 and 2.452 and 2.46
HDAC6 relative activity ([2]; sheet S2b, log conc -4.35788): 4.674 and 4.632 and 4.542
HDAC6 relative activity ([2]; sheet S2b, log conc -4.88629): 10.1866 and 10.4131 and 10.6467
HDAC6 relative activity ([2]; sheet S2b, log conc -5.41477): 23.025 and 23.2631 and 23.7333
HDAC6 relative activity ([2]; sheet S2b, log conc -5.94309): 48.9979 and 48.9603 and 49.8705
HDAC6 relative activity ([2]; sheet S2b, log conc -6.47756): 72.291 and 73.4771 and 73.4953
HDAC6 relative activity ([2]; sheet S2b, log conc -6.87615): 86.8078 and 88.7475 and 90.3905
HDAC6 relative activity ([2]; sheet S2d, log conc -3.30103): 1.458 and 1.424 and 1.356
HDAC6 relative activity ([2]; sheet S2d, log conc -3.82945): 2.832 and 2.728 and 2.83
HDAC6 relative activity ([2]; sheet S2d, log conc -4.35788): 6.139 and 5.789 and 5.799
HDAC6 relative activity ([2]; sheet S2d, log conc -4.88629): 13.455 and 13.5196 and 13.8559
HDAC6 relative activity ([2]; sheet S2d, log conc -5.41477): 31.3499 and 32.1006 and 33.4073
HDAC6 relative activity ([2]; sheet S2d, log conc -5.94309): 55.9078 and 57.6015 and 56.5157
HDAC6 relative activity ([2]; sheet S2d, log conc -6.47756): 76.0987 and 79.5289 and 82.7102
HDAC6 relative activity ([2]; sheet S2d, log conc -6.87615): 85.7363 and 87.7513 and 88.064
